“Also recorded” adds a separate entry of the source. Read-outs that look alike come from different tables or passages of the source.

Series [1] deals with RSV. Description: Indomethacin in drinking water in RSV-infected BALB/c mice (weight loss curve). Type of series: in vivo. From the text:
Genetically altered mice having the BALB/c background were obtained from Charles Rivers Laboratories, 251 Ballardvale Street,. Wilmington, Mass. 01887-1000. Modification to the level of PGI2 was accomplished by introducing indomethacin to the BALB/c mice. Indomethacin is a drug that is used to treat arthritis and other rheumatologic conditions and inhibits the activity of both COX-1 and COX-2 such that the formation of prostanoids, specifically PGI2, are not produced. Indomethacin is given to the mice in their drinking water in order to block the cyclooxygenase enzymes in order to determine the effect of the cyclooxygenase pathway on the immune response to RSV infection. Indomethacin is commercially available from Sigma, Inc. St. Louis, Mo.
As best seen in FIG. 4, mice treated with indomethacin have a much difference weight loss curve. Within the experiment, BALB/c mice were provided water having indomethacin, 30 micrograms/ml.
Female BALB/c mice that are 8–10 weeks of age and that weigh approximately 20 grams were used to determine the amount of weight loss that results from an RSV infection. The BALB/c mice were infected with RSV strain A as described in Example 1. Subsequent to infection, the mice received water in their drinking bottles to drink during the course of an infection. On day 5, the mice started to lose weight and the peak of illness as measured by maximal weight loss occurred on day 9. […] These mice then recovered and were fully back to baseline by day 19 after infection. FIG. 3 is an example of a typical body weight curve that occurs with RSV induced illness. On the Y-axis is the body weight as a percentage of the pre-infection weight. This curve is very reproducible although factors such as the strain of the mouse and the viral load administered can alter the severity and duration of illness.

The test system of series [2] is vaccinia virus. The note with it: BALB/c mice; cited from earlier work.
The conditions of series [3]: cited from earlier work.
Series [4] deals with RSV strain A. Description: UT-15 by subcutaneous micro-infusion pump in RSV-infected BALB/c mice (mortality, body weight). Format: in vivo. The settings on record: for survival percentage: FIG. 7. From the text:
The genetically altered mice and control mice were anesthetized with ketamine and xylazine, as described in Peebles, et al., 2001, J. Med. Virol. 63:178–88, which is incorporated herein by reference. The mice were intranasally infected with 10^7 pfu of RSV strain A. American Type Culture Collection, Manassas, Va.
In order to insert a micro-infusion pump into a mouse, the skin of the back, slightly posterior to the scapulae will be shaved and washed with ethanol. Subcutaneous implantation is technically the easiest and least invasive procedure. The usual site for subcutaneous implantation of Azlet pumps in mice is on the back, slightly posterior to the scapulae. Pumps are commercially available at: Alzet Osmotic Pumps, Durect Corporation, P.O. Box 530, Cupertino, Calif. 95015-0530. Absorption of the compound placed in the pump by local capillaries results in systemic administration. For subcutaneous pump implantation, the following steps are performed:
A micro-infusion pump system was inserted into a mouse as previously described in Example 8. After the micro-infusion pump was in place, UT-15 was administered subcutaneously for two weeks starting on the day prior to infection. The BALB/c mice received either different concentrations of UT-15 or water only, as indicated below. BALB/c mice were infected with RSV strain A as described in Example 1. There were 8–10 mice per group. The weight of each mouse was monitored on a daily basis. The mice were put on a scale to measure their weight.
Mice having received micro-infusion pumps received infusion of either water of some concentration of UT-15 for a period of 2 weeks after starting the day prior to RSV infection. […] Also shown are the percentage of body weight for each of the animals on each given day for the other animals either receiving no UT-15 or other concentrations of UT-15.

For series [5] the following is noted: in vivo; cited from earlier work.
Setting [6] is: indomethacin 30 micrograms/ml in drinking water, FIG. 4.

For the molecule `COc1ccc2c(c1)c(CC(=O)O)c(C)n2C(=O)c1ccc(Cl)cc1` [indomethacin], the “effect on RSV-induced illness” value in series [1] (FIG. 4 legend) was “exacerbates and delays recover from RSV-induced illness”. Also, in series [1] (setting [6]), the “day of peak illness (weight loss)” value was found to be 11 days and the “recovery of body weight after RSV infection” value is on record as “did not recover their weight”. For the same molecule, the “mortality from vaccinia virus infection vs non-treated mice” value in series [2] is given as “marked increase in mortality”.
Consider `CC(=O)Oc1ccccc1C(=O)O` [aspirin], for which the “mortality from vaccinia virus infection vs non-treated mice” value in series [2] is “marked increase in mortality”.
Consider `CCCCC[C@H](O)/C=C/[C@@H]1[C@H]2C/C(=C/CCCC(=O)O)O[C@H]2C[C@H]1O` [Epoprostenol], for which the side effects entry in series [3] (in vivo, iv) is “flushing, headache, chest pain, sweating, flu-like symptoms, nausea, vomiting, and systemic hypotension”.
Turning to `CCCCC[C@H](O)CC[C@@H]1[C@H]2Cc3cccc(OCC(=O)O)c3C[C@H]2C[C@H]1O` [UT-15], the “protection against RSV-induced mortality (percent survival)” value in series [4] (FIG. 7 legend and summary text, 2.0 and 20 ng/kg/min vs none) is listed as “protects against RSV-induced mortality; also recorded: increase percentage of survival”. In addition, the “protection against RSV-induced illness (percent of body weight)” value in series [4] (FIG. 8 legend, 20, 30, 40 ng/kg/min vs none) was “protects against RSV-induced illness”. The “recovery period of the surviving mice vs mice without UT-15” value in series [4] (UT-15 2.0 ng/kg/min) was “the recovery period was quicker”. The survival percentage entry in series [4] (UT-15 2.0 ng/kg/min subcutaneous for two weeks from the day prior to infection) is recorded as “next best survival percentage”; in series [4] (UT-15 20 ng/kg/min subcutaneous for two weeks from the day prior to infection), “best survival percentage”. Moreover, the “recovery period for body weight” value in series [4] (UT-15 20 ng/kg/min, compared with 0, 30 and 40 ng/kg/min, FIG. 8) is “quickest recovery period for body weight”. The “safety of administration to patients” value in series [3] (in vivo) was “safely used”.
Consider `CC#CCC(C)[C@H](O)/C=C/[C@@H]1[C@H]2C/C(=C/CCCC(=O)O)C[C@H]2C[C@H]1O` (stereo partly drawn) [Iloprost], for which, in series [5], the “share of oral iloprost reaching the systemic circulation” value is reported as “less than 20%”. Also, the “safety of administration to patients” value in series [3] (iloprost: long-term, pulmonary hypertension patients, UT-15: patients treated for another disease) is “safe”.
